Experimental data reported in US6387241B1, “Method of sterilization using ozone” (priority 1993, dated 2002).
Like-named read-outs stand apart in the source and are kept apart here.

Test system: spores of Bacillus stearothermophilus and Bacillus subtilis var. niger (Duo-Spore paper spore strips)

## O=[O+][O-] [ozone]
"flow through" mode, about 2 liters per minute, 10-12 wt% ozone
  ozone exposure time to achieve overkill (100% of the spore strips sterilized): 60 min
"pressure" mode, generator output 10-12 wt% ozone
  ozone exposure time to achieve overkill (100% of the spore strips sterilized): 45 min
"single fill" mode, static 10 wt% ozone
  ozone exposure time to achieve overkill (100% of the spore strips sterilized): 90 min
